Assay [1] concerns E. coli MG1655 strains Co2-Co4 and Co6-Co8. Description: plate reader validation of cobalt-sensing promoters (GFP fluorescence). The assay is classed as cell-based. The following applies: microplate wells, various concentrations of cobalt.
In assay [2] the test system is E. coli MG1655. The assay is classed as cell-based. The following applies: for Number DE Genes: false discovery rate below 1%. An excerpt: RNA-Seq results for promoter activation in E. coli MG1655 in response to single and multiple toxin exposures at low and high concentrations: Our analysis of the sequencing data from RNA-Seq experiments to determine candidate genes that are induced upon toxin exposure consisted of three main tasks: sequence alignment, quantification of gene expression, and identification of differentially expressed genes. Sequence alignment: Reads were aligned to the reference E. coli K-12 substr. MG1655 genome using a tolerance of at most two mismatches per alignment to protect against sequencing errors. The alignment was performed using Bowtie software, 5 which is known to be very efficient in aligning reads to a reference genome. Without being limiting, Bowtie software 5 can be used for the alignment. Those skilled in the art will appreciate that there are many such software programs for performing alignments.
Quantification of gene expression: The expression level of each gene was determined as a function of the number of aligned reads mapping to the gene. […] Additionally, we implemented our own algorithms for sequence alignment and quantification of gene expression in order to crosscheck all results.
Identification of differentially expressed genes: Finally, a set of statistical and information theory algorithms were applied in order to extract not only differentially expressed (DE) genes for each toxin with respect to the control samples (pure water) but also toxin-specific genes. DESeq is a standard tool for identifying DE genes that allowed us to select sensitive genes with differential expression between the control samples (pure water) and the cells exposed to toxin. It assumes that the number of counts for each gene across experimental replicates follows a negative binomial distribution (8, 9). We considered genes with a False Discovery Rate (FDR) lower than 1% as DE in order to ensure statistically robust DE genes. […] Additionally, genes with the largest number of counts and expression levels are preferable in order to maximize the signal-to-noise ratio. When it is not possible to find toxin-specific genes, the next generation of good candidates is formed by those genes satisfying the above properties for a small subset of toxins (multiple-toxin response). It is desirable to have single-toxin-specific genes for several of the toxins in the combination in order to determine toxin-specific multi-gene-responses by means of logical operations. […] Therefore, we have developed information theoretic measures to improve the toxin separability. The core idea of the approach is that low entropies (or highly informative genes) correspond to toxin-specific genes, while large entropies (low information) are associated with scenarios in which DE fold-changes across different toxins are similar and should be discarded.
Milestone 2.1: Expose target cells to toxins of interest over four orders of magnitude of concentration and extract RNA: Three strains of bacteria were exposed to relevant levels of all toxins and extracted RNA. The toxin exposure protocol involves first growing a culture of bacterial cells to mid-log phase (OD≤0.2). […] Finally, cellular RNA was stabilized using Qiagen RNA Protect reagent, the cells were centrifuged, and the pellet was frozen at −80° C. To investigate the cellular RNA response to toxin insult, we exposed E. coli MG1655, E. coli LABEC01, and B. subtilis 168 cells to the toxins and concentrations shown in Table 7 and extracted RNA.
Milestone 2.5: Prepare isolated RNA for Illumina sequencing using vendor provided reagents and carry out sequencing: We have prepared libraries and carried out sequencing for all toxins of interest.

For assay [3], the system named is E. coli MG1655/Pb7. Description: 18-strain chip induction. The format is cell-based. An excerpt:
In an embodiment herein, the toxin response data across 18 unique sensing strains were also collected using a new chip design that houses 16 E. coli strains and 2 B. subtilis strains. The B. subtilis NCIB 3610/Amm3 construct is a “lights-off” sensor, meaning that GFP production drops when ammonium is introduced, following a slight increase due to faster growth on this preferred nitrogen source. […] By combining these sensor responses, we can identify cobalt by the unique response of Pb7 alone and lead by the unique combination of Zn6, Pb7, and Pb8 responses.

The test system of assay [4] is Cd1. As to the kind of experiment: microplate specificity test with on- and off-target heavy metals (fluorescence). The assay is classed as cell-based, E. coli. The following applies: on-target = 1, no-toxin control = 0; As 1.3, Cd 0.44, Cr(VI) 2, Cu 20, Pb 1, Hg 0.1, Co 20, Fe 500, Ni 1.7, Zn 7.6 μM. From the text: (§1) Each column represents the fluorescence response of a strain to the on-target metal (normalized to “1”) and all off-target metals, where “0” represents the unchanged response for the no-toxin control.
(§2) Although the ability to sense cobalt, iron, nickel, and zinc is of secondary importance, these heavy metals were included as potential off-target inducers because they may be present in the natural water supply under test. […] This combinatorial logic was implemented in algorithms.

The subject of assay [5] is Cu1. The assay is described as above. The format is cell-based, E. coli. The following applies: on-target = 1, no-toxin control = 0; As 1.3, Cd 0.44, Cr(VI) 2, Cu 20, Pb 1, Hg 0.1, Co 20, Fe 500, Ni 1.7, Zn 7.6 μM.
Text: as §1, §2

Assay [6] concerns Cr5. The description is as above. The format is cell-based, E. coli. The following applies: on-target = 1, no-toxin control = 0; As 1.3, Cd 0.44, Cr(VI) 2, Cu 20, Pb 1, Hg 0.1, Co 20, Fe 500, Ni 1.7, Zn 7.6 μM.
Text: as §1, §2

Assay [7] deals with As3. Described as above. The assay is classed as cell-based, E. coli. The following applies: on-target = 1, no-toxin control = 0; As 1.3, Cd 0.44, Cr(VI) 2, Cu 20, Pb 1, Hg 0.1, Co 20, Fe 500, Ni 1.7, Zn 7.6 μM.
Text: as §1, §2

Assay [8] has as its system Pb2. The assay is described as above. The format is cell-based, E. coli. The following applies: on-target = 1, no-toxin control = 0; As 1.3, Cd 0.44, Cr(VI) 2, Cu 20, Pb 1, Hg 0.1, Co 20, Fe 500, Ni 1.7, Zn 7.6 μM.
Text: as §1, §2

The results in this text go back to patent US20220057378A1, “MICROBIAL MICROFLUIDIC BIOSENSOR” (priority 2015, published 2022).

Read-outs that look alike come from different tables or passages of the source.

As for `[Co]` [Cobalt], the “GFP response to cobalt in the growth medium” value in assay [1] is listed as “significantly respond”. Further, in assay [2] (RNA-Seq mean fold change), the “response of the dadA promoter” value was “specific to cobalt alone”, the “response of the hmp promoter” value was “specific to cobalt alone”, the “response of the ilvB promoter” value is on record as “specific to cobalt alone” and the “response of the lipA promoter” value is recorded as “specific to cobalt alone”. Also, in assay [2] (RNA-Seq mean fold change), the “response of the mmuP promoter” value was “specific to cobalt alone”, the “response of the soxR promoter” value was “specific to cobalt alone”, the “response of the tehA promoter” value is on record as “specific to cobalt alone” and the “response of the ygbA promoter” value is “specific to cobalt alone”. In assay [2] (RNA-Seq mean fold change), the “response of the yjbJ promoter” value is “specific to cobalt alone” and the “response of the yqfA promoter” value is reported as “specific to cobalt alone”. In addition, the “Number DE Genes” value in assay [2] (high concentration) is 1274. Besides, the “Number DE Genes” value in assay [2] (low concentration) came to 609. The “GFP response of strain Pb7” value in assay [3] is “responds sensitively”. For the same molecule, the “fluorescence response of strain Cd1 (on-target cadmium)” value in assay [4] was found to be 0.67. For the same molecule, the “fluorescence response of strain Cu1 (on-target copper)” value in assay [5] is listed as −0.01. The “fluorescence response of strain Cr5 (on-target chromium(VI))” value in assay [6] is on record as −0.11. Moreover, in assay [7], the “fluorescence response of strain As3 (on-target arsenic)” value was found to be 0.30. Further, in assay [8], the “fluorescence response of strain Pb2 (on-target lead)” value came out at 0.80.
